Measurements reported in patent US6737383B1, “Herbicidal oxadiazolidines” (priority 1999, dated 2004).

Experiments:
[1] = tested on: soybean; test: Test B pre/postemergence soybean; assay type: in vivo, Glycine max
How it was run: (§1)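 Response is a visual 0-to-10 score relative to untreated plants, where 0 means no effect and 10 means complete control, taken twelve to sixteen days after application. Treatments went onto soil at planting and onto foliage of 1- to 4-leaf plants, using a surfactant-containing non-phytotoxic solvent.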

[2] = tested on: wild oat; test: Test B pre/postemergence wild oat; assay type: in vivo, Avena fatua
How it was run: as §1

[3] = tested on: corn; test: Test B pre/postemergence corn; assay type: in vivo, Zea mays
How it was run: as §1

[4] = tested on: pigweed; test: Test B pre/postemergence pigweed; assay type: in vivo, Amaranthus retroflexus
How it was run: as §1

[5] = tested on: smallflower flatsedge; test: Test B flood test smallflower flatsedge; assay type: in vivo, Cyperus difformis
How it was run: (§2)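 Flood test on plants grown to the 2-leaf stage; treated plants kept in greenhouse twelve to sixteen days, then visually rated against controls on a 0 (no effect) to 10 (complete control) scale.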

[6] = tested on: crabgrass; test: Test B pre/postemergence crabgrass; assay type: in vivo, Digitaria sanguinalis
How it was run: as §1

[7] = tested on: velvetleaf; test: Test B pre/postemergence velvetleaf; assay type: in vivo, Abutilon theophrasti
How it was run: as §1

[8] = tested on: sugar beet; test: Test B pre/postemergence sugar beet; assay type: in vivo, Beta vulgaris
How it was run: as §1

[9] = tested on: bedstraw; test: Test B pre/postemergence bedstraw; assay type: in vivo, Galium aparine
How it was run: as §1

[10] = tested on: rice; test: Test B flood test rice; assay type: in vivo, Oryza sativa
How it was run: as §2

[11] = tested on: rape; test: Test B pre/postemergence rape; assay type: in vivo, Brassica napus
How it was run: as §1

[12] = tested on: surinam grass; test: Test B pre/postemergence surinam grass; assay type: in vivo, Brachiaria decumbens
How it was run: as §1

[13] = tested on: duck salad; test: Test B flood test duck salad; assay type: in vivo, Heteranthera limosa
How it was run: as §2

[14] = tested on: morningglory; test: Test B pre/postemergence morningglory; assay type: in vivo, Ipomoea hederacea
How it was run: as §1

[15] = tested on: bamyardgrass; test: Test B flood test barnyardgrass; assay type: in vivo, Echinochloa crus-galli
How it was run: as §2

[16] = tested on: cocklebur; test: Test B pre/postemergence cocklebur; assay type: in vivo, Xanthium strumarium
How it was run: as §1

[17] = Preemergence, Rate 62 g/ha, scale of 0 to 10 where 0 is no effect and 10 is complete control
[18] = Preemergence, Rate 250 g/ha, scale of 0 to 10 where 0 is no effect and 10 is complete control
[19] = Preemergence, Rate 500 g/ha, scale of 0 to 10 where 0 is no effect and 10 is complete control
[20] = Rate 62 g/ha, Postemergence, scale of 0 to 10 where 0 is no effect and 10 is complete control
[21] = Rate 125 g/ha, Postemergence, scale 0 to 10
[22] = Rate 125 g/ha, Preemergence, scale of 0 to 10 where 0 is no effect and 10 is complete control
[23] = Rate 500 g/ha, Postemergence, scale 0 to 10, 0 no effect, 10 complete control
[24] = Rate 62 g/ha, headed Pre-emergence (flood test species), scale 0 to 10 (0 no effect, 10 complete control)
[25] = Rate 125 g/ha, Pre-emergence, flood test species, scale 0 to 10 where 0 is no effect and 10 is complete control
[26] = Rate 250 g/ha, Pre-emergence, flood-test species, scale 0 to 10, 0 is no effect, 10 is complete control
[27] = Rate 500 g/ha, Pre-emergence, flood test species, scale 0 to 10 (0 no effect, 10 complete control)

CC(C)N(C(=O)n1oc(=O)n(-c2cccnc2)c1=O)c1ccc(F)cc1 [Compound 234]
Soybean plant response rating [1, 17]: 0 | Soybean plant response rating [1, 18]: 0 | Plant response rating, Soybean [1, 19]: 0 | Soybean plant response rating [1, 20]: 0 | Soybean plant response rating [1, 21]: 0 | Soybean plant response rating [1, 22]: 0 | Plant response rating (0 to 10; 0 is no effect, 10 is complete control), Soybean ([1]; Rate 250 g/ha, Postemergence): 0 | Soybean plant response rating [1, 23]: 1 | Wild oats plant response rating [2, 17]: 0 | Wild oats plant response rating [2, 18]: 0 | Plant response rating, Wild oats [2, 19]: 0 | Wild oats plant response rating [2, 20]: 0 | Wild oats plant response rating [2, 21]: 0 | Wild oats plant response rating [2, 22]: 0 | Plant response rating (0 to 10; 0 is no effect, 10 is complete control), Wild oats ([2]; Rate 250 g/ha, Postemergence): 0 | Wild oats plant response rating [2, 23]: 0 | Corn plant response rating [3, 17]: 0 | Corn plant response rating [3, 18]: 0 | Plant response rating, Corn [3, 19]: 0 | Corn plant response rating [3, 20]: 0 | Corn plant response rating [3, 21]: 0 | Corn plant response rating [3, 22]: 0 | Plant response rating (0 to 10; 0 is no effect, 10 is complete control), Corn ([3]; Rate 250 g/ha, Postemergence): 0 | Corn plant response rating [3, 23]: 0 | Redroot pigweed plant response rating [4, 17]: 0 | Redroot pigweed plant response rating [4, 18]: 0 | Plant response rating, Redroot pigweed [4, 19]: 0 | Redroot pigweed plant response rating [4, 20]: 0 | Redroot pigweed plant response rating [4, 21]: 0 | Redroot pigweed plant response rating [4, 22]: 0 | Plant response rating (0 to 10; 0 is no effect, 10 is complete control), Redroot pigweed ([4]; Rate 250 g/ha, Postemergence): 0 | Redroot pigweed plant response rating [4, 23]: 0 | S. Flatsedge plant response rating [5, 24]: 0 | S. Flatsedge plant response rating [5, 25]: 0 | S. Flatsedge plant response rating [5, 26]: 0 | S. Flatsedge plant response rating [5, 27]: 0 | Crabgrass plant response rating [6, 17]: 0 | Crabgrass plant response rating [6, 18]: 0 | Plant response rating, Crabgrass [6, 19]: 0 | Crabgrass plant response rating [6, 20]: 0 | Crabgrass plant response rating [6, 21]: 0 | Crabgrass plant response rating [6, 22]: 0 | Plant response rating (0 to 10; 0 is no effect, 10 is complete control), Crabgrass ([6]; Rate 250 g/ha, Postemergence): 0 | Crabgrass plant response rating [6, 23]: 0 | Velvetleaf plant response rating [7, 17]: 0 | Velvetleaf plant response rating [7, 18]: 0 | Plant response rating, Velvetleaf [7, 19]: 0 | Velvetleaf plant response rating [7, 20]: 0 | Velvetleaf plant response rating [7, 21]: 0 | Velvetleaf plant response rating [7, 22]: 0 | Plant response rating (0 to 10; 0 is no effect, 10 is complete control), Velvetleaf ([7]; Rate 250 g/ha, Postemergence): 0 | Velvetleaf plant response rating [7, 23]: 0 | Sugarbeets plant response rating [8, 17]: 0 | Sugarbeets plant response rating [8, 18]: 0 | Plant response rating, Sugarbeets [8, 19]: 0 | Sugarbeets plant response rating [8, 20]: 0 | Sugarbeets plant response rating [8, 21]: 0 | Sugarbeets plant response rating [8, 22]: 0 | Plant response rating (0 to 10; 0 is no effect, 10 is complete control), Sugarbeets ([8]; Rate 250 g/ha, Postemergence): 0 | Sugarbeets plant response rating [8, 23]: 0 | Bedstraw plant response rating [9, 17]: 0 | Bedstraw plant response rating [9, 18]: 0 | Plant response rating, Bedstraw [9, 19]: 0 | Bedstraw plant response rating [9, 20]: 0 | Bedstraw plant response rating [9, 21]: 0 | Bedstraw plant response rating [9, 22]: 0 | Plant response rating (0 to 10; 0 is no effect, 10 is complete control), Bedstraw ([9]; Rate 250 g/ha, Postemergence): 0 | Bedstraw plant response rating [9, 23]: 0 | Rice plant response rating [10, 24]: 0 | Rice plant response rating [10, 25]: 0 | Rice plant response rating [10, 26]: 0 | Rice plant response rating [10, 27]: 0 | Rape plant response rating [11, 17]: 0 | Rape plant response rating [11, 18]: 0 | Plant response rating, Rape [11, 19]: 0 | Rape plant response rating [11, 20]: 0 | Rape plant response rating [11, 21]: 0 | Rape plant response rating [11, 22]: 0 | Plant response rating (0 to 10; 0 is no effect, 10 is complete control), Rape ([11]; Rate 250 g/ha, Postemergence): 0 | Rape plant response rating [11, 23]: 0 | B. signalgrass plant response rating [12, 17]: 0 | B. signalgrass plant response rating ([12]; Preemergence, Rate 250 g/ha, scale 0 to 10, 0 is no effect, 10 is complete control): 0 | Plant response rating, B. signalgrass [12, 19]: 0 | B. signalgrass plant response rating [12, 20]: 0 | B. signalgrass plant response rating ([12]; Rate 125 g/ha, Postemergence, scale 0 (no effect) to 10 (complete control)): 0 | B. signalgrass plant response rating [12, 22]: 0 | Plant response rating (0 to 10; 0 is no effect, 10 is complete control), B. signalgrass ([12]; Rate 250 g/ha, Postemergence): 0 | B. signalgrass plant response rating [12, 23]: 0 | Ducksalad plant response rating [13, 24]: 0 | Ducksalad plant response rating [13, 25]: 0 | Ducksalad plant response rating [13, 26]: 0 | Ducksalad plant response rating [13, 27]: 0 | Morningglory plant response rating [14, 17]: 0 | Morningglory plant response rating [14, 18]: 0 | Plant response rating, Morningglory [14, 19]: 0 | Morningglory plant response rating [14, 20]: 0 | Morningglory plant response rating [14, 21]: 0 | Morningglory plant response rating [14, 22]: 0 | Plant response rating (0 to 10; 0 is no effect, 10 is complete control), Morningglory ([14]; Rate 250 g/ha, Postemergence): 1 | Morningglory plant response rating [14, 23]: 2 | Barnyardgrass plant response rating [15, 24]: 0 | Barnyardgrass plant response rating [15, 25]: 0 | Barnyardgrass plant response rating [15, 26]: 0 | Barnyardgrass plant response rating [15, 27]: 0 | Cocklebur plant response rating [16, 17]: 0 | Cocklebur plant response rating [16, 18]: 0 | Plant response rating, Cocklebur [16, 19]: 0 | Cocklebur plant response rating [16, 20]: 0 | Cocklebur plant response rating [16, 21]: 0 | Cocklebur plant response rating [16, 22]: 0 | Plant response rating (0 to 10; 0 is no effect, 10 is complete control), Cocklebur ([16]; Rate 250 g/ha, Postemergence): 0 | Cocklebur plant response rating [16, 23]: 3
